Two compounds from article PMC3020594 (International journal of biological macromolecules, 2010) can be followed below.

The target of the assay is human cytidine deaminase (CDA) (Homo sapiens, UniProt P32320, Y33G). In words: biochemical. The class given is biochemical.

Like-named read-outs stand apart in the source and are kept apart here.

Sequence of human cytidine deaminase (CDA) (P32320 whole entry Y33G): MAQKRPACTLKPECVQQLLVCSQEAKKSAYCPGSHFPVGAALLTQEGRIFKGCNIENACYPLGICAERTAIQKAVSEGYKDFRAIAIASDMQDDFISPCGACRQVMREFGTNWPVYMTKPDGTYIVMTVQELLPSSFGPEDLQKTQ

“6-[3,5(cytidyl)acryloylamino] hexanoic acid [CV6]”: under “read-out: Y33G”, the Ki amounted to 3400 nM.

Turning to `O=c1ncc(F)cn1[C@@H]1O[C@H](CO)[C@@H](O)[C@H]1O` [5-FZEB, 5-Fluorozebularine], the Ki amounted to 200 nM.
